From patent US6689813B2 (Biostatin Gyogyszerkutato-Fejleszto kft., priority 1998, dated 2004)
Where no end group is shown, it is not given here. [ ]: non-standard residue; d: D form. βAsp(indolinyl) = β-Asp(indolinyl) N-terminal residue

Assays:
[1] = test system: neurogenic inflammation; conditions: sodium salicylate 250 mg/kg i.v.; amidopyridine 200 mg/kg p.o.; phenylbutazone 100 mg/kg i.v.; flufenamic acid 20 mg/kg i.v.; indomethacin 10 mg/kg p.o.; cited from earlier work
[2] = test system: Wistar rats; test: 1% mustard oil-induced neurogenic inflammation (Evans blue plasma extravasation, foot skin); type: in vivo, rat; conditions: for Decrease % (Evans blue extravasation vs control) / Evans blue extravasation: 20 μg/kg i.p.; for Decrease % (Evans blue extravasation vs control): 1% mustard oil; for Evans blue extravasation: 1% mustard oil on feet, control 169.525; for inhibition of mustard oil-induced neurogenic inflammation (in words): 20 μg/kg, 20 minutes after i.p. administration
Description: Thirty minutes after acute bilateral denervation of the lower limbs (transsection of the saphenous and sciatic nerves), 50 mg/kg of Evans blue dye was administered to the tail vein of nembutal-anaesthetized (pentobarbital, 40 mg/kg i.p.) Wistar rats (150-220 g body weight; 5 to 7 animals in each group). […] The mustard oil induces a so-called neurogenic inflammation by the selective stimulation of the peripheral endings of CSPAN's and by releasing the mediators being present therein (chiefly tachykinins and CGRP); this neurogenic inflammation appears as a vasodilatation in the area of arterioles and in the form of a plasma extravasation at the venular side. Since the dye Evans blue is bound to serum albumin in the vascular bed, its precipitation and accumulation in the upper skin surface of foot are proportional to the extent of plasma extravasation. Thus, the quantitative determination of intensity of the inflammation becomes possible. After the painting with mustard oil, the animals were bled, the foot dorsum skins were cut out and their weights were determined. The amount of dye extracted during 72 hours of incubation in formamide was determined at 620 nm on a spectrophotometer (Spectromon 195). The amount (expressed as μg) of the extravasated Evans blue related to one g of wet tissue was calculated by means of the following formula:
Evans blue (μg/g)=E×V×k/m
E is the light absorption of the solution, V means the volume (ml) of the solution, m is the weight […] of the skin cut out from the foot dorsum skin; and k is a constant determined on the basis of a dilution series, which is characteristic of the dye solution.

[3] = test system: Wistar rats; test: 0.5% dextran-induced non-neurogenic inflammation (foot swelling, plethysmometer) after chronic denervation; type: in vivo, rat
Description: This test is based on the fact that a non-neurogenic, so-called clearly chemical inflammation can be induced by chemical excitation (e.g. by dextran, carrageenin, formalin) on a chronically denervated body area at least 5 days following the transsection of the nerve. These chemical agents release inflammation-inducing substances (histamine, bradykinin, PAF, prostaglandins and leucotrienes) from immunocytes, chiefly from mast cells.
Dextran solution (0.1 ml, 0.5%) is administered into both feet, underneath the plantar skin of Wistar rats (5 to 7 animals in each group) anaesthetized by nembutal (40 mg/kg i.v.) 5 days after bilateral denervation (transsection of the saphenous and sciatic nerves) of the lower limbs. The pretreated animals received somatostatin (SS), ocreotide or TT-232 (10 μg/kg i.p.) 10 minutes earlier. Before the administration of dextran (0 minute value), then after 10, 20 and 30 minutes, respectively, the swelling of the feet was measured by using a plethysmometer (Ugo Basil). Dextran elicits the so-called clearly chemical inflammation in the feet deprived of nerve supply (innervation) through the transmitters released from the mast cells.
A dose/effect ratio was determined for each substance.

[4] = test system: Wistar rats; test: Analgetic action: vegetative (pseudoaffective) reflex responses to mustard oil and capsaicin under urethane anaesthesia; type: in vivo, rat; design: Increase in heart rate: unit not given here; conditions: 10 μg/kg i.p.
Source text: This test is based on the synchronous registration of several components of so-called pseudoaffective reflex responses, which can be induced on animals by pain-producing stimuli [Lim, R. K. S.: J. Comp. Neurol 118, 269-294 (1962)] under urethane anaesthesia.
A significant blood pressure increase of 45 mmHg as an average pressor response, heart rate increase of 85 (as an average) and hyperpnoea (the number of respirations increases by 61 per minute as an average) can be observed in control animals on the effect of strong chemonociceptive stimuli (painting of the lower limbs with 1% mustard oil or dropping a capsaicin solution of 100 μg/ml concentration into the eye) under urethane anaesthesia.
The blood pressure, heart rate and respiration of intact Wistar rats (5 to 7 animals in each group, with a body weight of 250 to 350 g) were continuously registered for 40 minutes through an arterial cannula as well as double ramifying trachea cannula. Ten minutes before beginning the measurement, the pretreated animals received intraperitoneally 10 μg/kg of somatostatin (SS), octreotide or TT-232, respectively. Both lower limbs of the animals were painted with mustard oil in the 3rd minute and capsaicin solution was dropped into their eyes in the 23rd minute. The vegetative responses given on these nociceptive stimuli were evaluated by using a specific computer program.

[5] = Table 2.a, 10 mg/kg, 10 minutes
[6] = Table 2.a, 10 mg/kg, 30 minutes

Question: For `Cc1c(N(C)C)c(=O)n(-c2ccccc2)n1C` [amidopyridine], which “significant inhibitory effect on neurogenic inflammation” value (shortened to “significant inhibitory effect”) [1] is on record?
Answer: Its value is “none”.

Question: For `COc1ccc2c(c1)c(CC(=O)O)c(C)n2C(=O)c1ccc(Cl)cc1` [indomethacin], which “significant inhibitory effect” value [1] is on record?
Answer: The value was “none”.

Question: Which “Decrease % (Evans blue extravasation vs control)” value (“Decrease %” for short) [2] does the source give for “D-Phe-Cys-Tyr-D-Trp-Lys-Cys-Trp-NH2 ([dF]CY[dW]KCW-NH2; cysteine pairing not given here) [VZ-924]” here?
Answer: The value was 55.62%.

Question: And the Evans blue extravasation [2]?
Answer: The Evans blue extravasation was 75.26 µg/g.

Question: And the “inhibition of mustard oil-induced neurogenic inflammation (in words)” value (“inhibition … (in words)” for short) [2]?
Answer: The value was “significantly inhibited”.

Question: Which “significant inhibitory effect” value [1] does the source give for `O=C(O)c1ccccc1Nc1cccc(C(F)(F)F)c1` [flufenamic acid] here?
Answer: Its value is “none”.

Question: For `Cc1cnc(NC(=O)C2=C(O)c3ccccc3S(=O)(=O)N2C)s1` [Meloxicam, reference compound], which foot swelling % ([3]; Table 2.a, 0.2 mg/kg, 10 minutes) is on record?
Answer: Its foot swelling % is 27.60 ± 3.56%.

Question: What about the foot swelling % ([3]; Table 2.a, 0.2 mg/kg, 20 minutes) of the same compound?
Answer: Its foot swelling % is 39.99 ± 3.65%.

Question: What about the foot swelling % ([3]; Table 2.a, 0.2 mg/kg, 30 minutes) of the same compound?
Answer: Its foot swelling % is 45.81 ± 2.9%.

Question: And the foot swelling % ([3]; Table 2.a, 0.5 mg/kg, 10 minutes)?
Answer: Its foot swelling % is 27.24 ± 3.56%.

Question: What about the foot swelling % ([3]; Table 2.a, 0.5 mg/kg, 20 minutes) of the same compound?
Answer: Its foot swelling % is 38.86 ± 2.86%.

Question: And the foot swelling % ([3]; Table 2.a, 0.5 mg/kg, 30 minutes)?
Answer: The foot swelling % was 44.92 ± 2.99%.

Question: What about the foot swelling % ([3]; Table 2.a, 1 mg/kg, 10 minutes) of the same compound?
Answer: Its foot swelling % is 24.34 ± 2.57%.

Question: And the foot swelling % ([3]; Table 2.a, 1 mg/kg, 20 minutes)?
Answer: The foot swelling % was 36.46 ± 3.44%.

Question: And the foot swelling % ([3]; Table 2.a, 1 mg/kg, 30 minutes)?
Answer: Its foot swelling % is 46.63 ± 3.2%.

Question: What about the foot swelling % [3, 5] of the same compound?
Answer: Its foot swelling % is 20.39 ± 2.26%.

Question: And the foot swelling % ([3]; Table 2.a, 10 mg/kg, 20 minutes)?
Answer: The foot swelling % was 33.36 ± 1.85%.

Question: What about the foot swelling % [3, 6] of the same compound?
Answer: The foot swelling % was 39.34 ± 3.75%.

Question: With “β-Asp(indolinyl)-Cys-Tyr-D-Trp-Lys-Cys-Thr-NH2 ({βAsp(indolinyl)}-CY[dW]KCT-NH2; cysteine pairing not given here) [VZ-927]” as the compound, how does the “Decrease %” value [2] read?
Answer: The value was 60.44%.

Question: What about the Evans blue extravasation [2] of the same compound?
Answer: Its Evans blue extravasation is 67.07 µg/g.

Question: What about the “inhibition … (in words)” value [2] of the same compound?
Answer: The value was “significantly inhibited”.

Question: Which “inhibition of 1% mustard oil-induced neurogenic inflammation (plasma extravasation)” value ([2]; 50 μg) does the source give for `O=C(NN=Cc1ccc(O)c(O)c1)C(=O)Nc1cccc([N+](=O)[O-])c1` [HDL 2722, 3′-nitrophenylamino-2-oxoacetyl-3″,4″-dihydroxyphenyl-hydra-zone] here?
Answer: The value was 62%.

Question: For `O=C([O-])c1ccccc1O.[Na+]` [sodium salicylate], which “significant inhibitory effect” value [1] is on record?
Answer: The value was “none”.

Question: Which “Decrease %” value [2] does the source give for “D-Phe-Cys-Tyr-Gly-Lys-Cys-Thr-NH2 ([dF]CYGKCT-NH2; cysteine pairing not given here) [VZ-1021]” here?
Answer: The value was 54.72%.

Question: And the Evans blue extravasation [2]?
Answer: Its Evans blue extravasation is 76.72 µg/g.

Question: And the “inhibition … (in words)” value [2]?
Answer: Its value is “significantly inhibited”.

Question: For `O=C(O)Cc1ccccc1Nc1c(Cl)cccc1Cl` [Diclofenac, reference compound], which foot swelling % ([3]; Table 2.a, 5 mg/kg, 20 minutes) is on record?
Answer: The foot swelling % was 48.73 ± 4.84%.

Question: And the foot swelling % ([3]; Table 2.a, 5 mg/kg, 30 minutes)?
Answer: The foot swelling % was 53.07 ± 3.95%.

Question: And the foot swelling % [3, 5]?
Answer: The foot swelling % was 24.35 ± 3.31%.

Question: And the foot swelling % [3, 6]?
Answer: Its foot swelling % is 42.61 ± 3.55%.

Question: And the foot swelling % ([3]; Table 2.a, 20 mg/kg, 10 minutes)?
Answer: The foot swelling % was 21.87 ± 2.84%.

Question: What about the foot swelling % ([3]; Table 2.a, 30 mg/kg, 10 minutes) of the same compound?
Answer: Its foot swelling % is 26.02 ± 1.79%.

Question: And the foot swelling % ([3]; Table 2.a, 30 mg/kg, 30 minutes)?
Answer: The foot swelling % was 40.20 ± 1.73%.

Question: With “D-Phe-Cys-Tyr-D-Trp-Gly-Cys-Thr-NH2 ([dF]CY[dW]GCT-NH2; cysteine pairing not given here) [VZ-934]” as the compound, how does the “Decrease %” value [2] read?
Answer: Its value is 44.7%.

Question: What about the Evans blue extravasation [2] of the same compound?
Answer: Its Evans blue extravasation is 93.7 µg/g.

Question: What about the “inhibition … (in words)” value [2] of the same compound?
Answer: Its value is “significantly inhibited”.

Question: With `C[C@@H](O)[C@@H]1NC(=O)[C@H](CCCCN)NC(=O)[C@@H](Cc2c[nH]c3ccccc23)NC(=O)[C@H](Cc2ccccc2)NC(=O)[C@@H](NC(=O)[C@H](N)Cc2ccccc2)CSSC[C@@H](C(=O)N[C@H](CO)[C@@H](C)O)NC1=O` [Octreotide, reference compound] as the compound, how does the “prevention of dextran-induced non-neurogenic inflammation (in words)” value ([3]; 10 μg/kg, even 40 minutes following the pretreatment) read?
Answer: The value was “completely inactive”.

Question: And the foot swelling % ([3]; Table 2, 10 μg/kg i.p. 10 min before dextran, 10 minutes, control 32.97)?
Answer: The foot swelling % was 31.36%.

Question: And the foot swelling % ([3]; Table 2, 10 μg/kg i.p. 10 min before dextran, 20 minutes, control 49.695)?
Answer: The foot swelling % was 47.7%.

Question: And the foot swelling % ([3]; Table 2, 10 μg/kg i.p. 10 min before dextran, 30 minutes, control 56.68)?
Answer: The foot swelling % was 54.8%.

Question: What about the “Decrease %” value [2] of the same compound?
Answer: Its value is 3.952%.

Question: What about the Evans blue extravasation [2] of the same compound?
Answer: Its Evans blue extravasation is 162.826 µg/g.

Question: What about the “inhibition … (in words)” value [2] of the same compound?
Answer: Its value is “inactive”.

Question: What about the “protection against pseudoaffective reflex triad elicited by mustard oil and capsaicin (in words)” value ([4]; 10 minutes before mustard oil) of the same compound?
Answer: The value was “completely inactive”.

Question: What about the “Increase in respiration rate” value ([4]; after dropping capsaicin solution into the eye, control 47.5) of the same compound?
Answer: Its value is 42 per minute.

Question: And the “Increase in mean arterial pressure” value ([4]; after dropping capsaicin solution into the eye, control 55)?
Answer: Its value is 47.13 mmHg.

Question: What about the “Increase in heart rate” value ([4]; after dropping capsaicin solution into the eye, control 143) of the same compound?
Answer: The value was 127.

Question: And the “Increase in mean arterial pressure” value ([4]; after painting the feet by mustard oil, control 45.4)?
Answer: The value was 43.2 mmHg.

Question: And the “Increase in respiration rate” value ([4]; after painting the feet by mustard oil, control 60.75)?
Answer: Its value is 45 per minute.

Question: And the “Increase in heart rate” value ([4]; after painting the feet by mustard oil, control 84.8)?
Answer: Its value is 81.2.
